Measurements published in patent US6995136B1, “Peptide fragments of murine epidermal growth factor as laminin receptor targets” (The Queen's University of Belfast, priority 1998, dated 2006).
Non-standard residues stand in square brackets, D forms with d. Residues, ends and D or L forms follow the SMILES beside them. No end group written: not given here. *: point of attachment. Tic‑OH = tetrahydroisoquinoline-3-carboxylic acid (hydroxy-substituted), constrained Tyr mimetic; Cit = NC(=O)NCCC[C@H](N)C(=O)O; Acm = CC(=O)NC*

Assays:
[1] = target: T1, 67 kDa laminin receptor (67-LR) (Homo sapiens, UniProt P08865); experiment: 125I-laminin displacement (competition binding) on T47-D or SK HEP-1 cells; conditions: relative to mEGF(33-42); 0.1 nM 125I-laminin, overnight 4° C.
T1 construct: endogenous in cells; host or cells: T47-D or SK HEP-1 cells (whole-cell suspension)
Protocol: ^125I-laminin was prepared using ^125I-labelled sodium iodide (Amersham, UK) and immobilised chloramine-T (Iodobeads; Pierce, Ill.). Prior to use, the beads were washed with 500 μl phosphate buffer (pH 6.5) to remove excess reagent from the support. These were then allowed to air dry and individual beads added to a solution of carrier free Na^125I, diluted with iodination buffer (phosphate buffer pH 7.4). The beads were allowed to equilibrate for 5 min.
Laminin (10 μg in 10 μl) was then diluted into the iodination buffer and the system incubated at 20° C. for 15 min. The solution was then removed from the reaction vessel and excess Na^125I and unincorporated ^125I2 separated from the iodinated protein by gel filtration on a GF-5 exclusion column (Pierce, Ill.). Iodinated laminin fractions were recovered at a specific activity of approximately 1.2 mCi/mg protein (864 Ci/mmol).
Near confluent cultures of T47-D or SK HEP-1 cells were removed from monolayer with 0.02% EGTA and passed through a G-25 syringe needle to produce single cell suspensions. Aliquots of each cell type (10^6 cells/ml) were dispensed into separate Ependorf tubes (1 ml each) and pelleted. The cells were then resuspended in 1 ml ice-cold RPMI (SK HEP-1) or DMEM (T47-D) containing 0.1% BSA and either laminin or synthetic peptide at the concentrations indicated. Iodinated laminin was then added to each cell suspension to give a final ^125I-laminin concentration of 0.1 nM (approximately 50,000 cpm). These mixtures were incubated overnight at 4° C.
The tubes were then microfuged at 10,000 g and the supernatant removed. After washing the pellet with 500 μl CFS, the remaining radioactivity was determined using a gamma radiation counter. Non-specific binding was determined by incubating cells with a 1000-fold molar excess of unlabelled laminin. All estimations were carried out in triplicate.
(§1) IC50 (concentration of unlabelled peptide required to produce 50% inhibition of radioligand binding) and EC50 (effective concentration for 50% inhibition of cell attachment) values were calculated using the Grafit curve-fitting programme (Erithacus Software, London, UK).

trypsin-like proteases = experiment: Resistance to trypsin degradation; type: in vitro ADME
[2] = system: Endothelial cells (SK HEP-1 and BRCE); experiment: Migration assay (colloidal gold track area); type: cell-based; conditions: endothelial cells, 18 h
Protocol: The method used was basically as described by Albrecht-Buehler (1977). Briefly, coverslips (22×22 mm) were treated in 5% detergent (7×; ICN Biomedicals) and washed in alcohol to remove grease. After drying, they were immersed in gelatin solution (Sigma, 300 Bloom; 0.5 g in 300 ml distilled H2O) for 10 min. The coverslips were then dried by placing in a 70° C. oven for 45 min.
Colloidal gold suspension was prepared by adding 11 ml distilled H2O and 6 ml Na2CO3 (36.5 mM) to 1.8 ml AuHCl4 (14.5 mM). The mixture was heated to 95° C. at which point 1.8 ml of freshly prepared 0.1% formaldehyde solution was added; the temperature was maintained at 95° C. A suspension of colloidal gold was formed which was brown to absorbed light and blue to transmitted light.
The gold suspension, was then added to petri dishes containing individual coverslips and the plates incubated at 37° C. for 45 min. After washing with CFS (3×4 ml) to remove unattached gold particles, the coverslips were transferred to 6-well cluster dishes and UV sterilised.
Endothelial cells (SK HEP-1 and BRCE) in culture media (0.3 ml) were seeded onto the coverslips at an approximate density of 5×10^3 cells per well. The cells were allowed to plate down for 2 h at 37° C. after which the treatments were added. Assay systems were maintained for a further 18 h after which the cells were fixed using 3% gluteraldehyde in cacodylate buffer (pH 7.2).
The assays were examined using a Leica DM1RB phase contrast microscope and Q500MC image analysis system incorporating a JVC TK-1280E colour camera (Leica, Milton Keynes, UK). The track images of at least 30 cells were videocaptured and the area (representing migration response) determined for each. Statistical analysis of these areas was then carried out using Macintosh Instat software to perform both Kruskal-Wallis analysis of variance and Mann-Whitney U-tests in order to compare the treatment groups with controls.

[3] = system: cell attachment to laminin through the 67-LR (T-47D, SK HEP-1); experiment: Laminin attachment assay; type: cell-based, human; conditions: relative to mEGF(33-42)
Protocol: Non-tissue culture grade 96-well plates, coated with 2.5 μg murine laminin in 50 μl CFS per well, were air-dried overnight at room temperature. […] After rinsing with CFS (100 μl), the plastic was saturated with casein (0.2% in CFS). Plates were incubated at room temperature for 45 min then washed extensively with CFS (3×100 μl).
After removal of culture media, cells were detached from monolayers by the action of EGTA (0.02% in CFS) at 37° C. The cells were then centrifuged at 800 g for 2 min and the pellet resuspended in DMEM (T-47D) or RPMI (SK HEP-1).
Cells, at a population density of 10^6 cells/ml, were then aliquoted (1 ml) into microfuge tubes containing the individual peptide sequences and incubated for 1 h at 37° C. The cells (100 μl aliquots) were then added to the pre-coated multi-well plates and incubated for a further 60 min. Incubation media were removed and the wells washed with CFS (3×100 μl) to rid the plates of non-adherent cells.
Attached cell numbers were evaluated spectrophotometrically at 620 nm after fixing with 10% formaldehyde and staining with crystal violet.
as §1

[4] = system: angiogenesis in the chick; experiment: Chick angiogenesis model; type: in vivo; conditions: laminin-stimulated; model not stated at the place (Nelson et al 1995)
[5] = system: angiogenesis in the chick; conditions: shown previously; cited from earlier work
[6] = system: Endothelial cells (SK HEP-1 and BRCE); conditions: shown previously; cited from earlier work
67 kDa laminin receptor = target: T2, 67 kDa laminin receptor (Homo sapiens, UniProt P08865); experiment: Cell attachment to biotinylated mEGF(33-42) with anti-laminin receptor or anti-EGF receptor antibodies; type: cell-based
T2 construct: endogenous in cells
Protocol: Briefly, 96-well plates were coated with 100 μl/well streptavidin (5 μg/ml in carbonate buffer pH 9.6) and following an overnight incubation at 37° C., wells were washed with CFS (3×100 μl) and the plastic blocked with casein (0.2% in CFS). The plates were then incubated at room temperature for 45 min and washed with CFS as previously detailed. Biotinylated mEGF(33-42) in CFS was then aliquoted into the wells (0.1 ml of 100 μM) and the plates incubated for 3 h at 37° C.
After a further block with 0.2% casein, the wells were washed with CFS (3×100 μl aliquots). Plates were kept at 4° C. and used within 2 h.
Cells were prepared as above and pre-incubated for 1 h at 37° C. with serial dilutions of anti-laminin receptor polyclonal (see below) or anti-EGF (R1) receptor monoclonal antibodies. Subsequent procedures were as detailed for the laminin attachment assay.

67-LR = target: T3, 67-LR (Homo sapiens, UniProt P08865); experiment: Peptide screening for receptor interaction, cell adhesion and motility properties; type: cell-based
T3 construct: endogenous in cells
Excerpt: In addition, using residue exchange between the two peptides and molecular modelling to predict three-dimensional structure, we wished to further investigate the role of individual mEGF(33-42) residues in laminin antagonism. A logical series of peptides was synthesised and screened for receptor interaction, cell adhesion and motility properties (Table 1a and 1b).

Row | Compound | receptor affinity, 125I-laminin displacement (IC50), in words [1] | migration (motility) response: laminin agonist or antagonist [2] | inhibition of cell attachment (adhesion) to laminin (EC50), in words [3] | also measured
1 | CC[C@H](C)[C@H](NC(=O)[C@@H](NC(=O)[C@H](CSCNC(C)=O)NC(C)=O)C(C)C)C(=O)NCC(=O)N[C@@H](Cc1ccc(O)cc1)C(=O)N[C@@H](CO)C(=O)NCC(=O)N[C@@H](CC(=O)O)C(=O)N[C@@H](CCCNC(N)=O)C(=O)N[C@@H](CSCNC(C)=O)C(N)=O [peptide IV, AcC(Acm)-VIGYSGD-[Cit]-C-(Acm)-NH2] (Ac-C(Acm)VIGYSGD[Cit]C(Acm)-NH2) | increased both receptor binding and inhibition of attachment to laminin substrata | – | – | resistance to trypsin / trypsin-like proteases (trypsin-like proteases): resistant to cleavage by trypsin-like proteases
2 | AVIGYSGDRC [peptide VIII, alanine scan of mEGF(33-42): alanine for cysteine (P1)] | dramatic decrease in receptor affinity | weak laminin agonist | parallel decrease in their ability to block adhesion to laminin | –
3 | Acetyl-C-[S-Acm]-VIGYSGDR-C-[S-Acm]NH2 (Ac-C(Acm)VIGYSGDRC(Acm)-NH2) [mEGF(33-42), capped synthetic peptide of residues 33 to 42 of murine epidermal growth factor, 67LR antagonist] | equipotent | antagonist | – | angiogenic effects of laminin [4]: inhibits the angiogenic effects of laminin; EGF-stimulated angiogenic response in the early chick [5]: inhibit the EGF-stimulated angiogenic response; basal and EGF-stimulated motility of primary and established endothelial cells [6]: blocking the basal and EGF-stimulated motility; receptor that mediates the anti-angiogenic effects (67 kDa laminin receptor; 67-LR versus EGF receptor): mediated solely through the high affinity 67 kDa laminin receptor (67-LR) and not through the EGF receptor; binding to the 67 kDa laminin receptor (67 kDa laminin receptor; biotinylated derivative of the peptide on streptavidin plates): bound to the 67 kDa laminin receptor
4 | CAIGYSGDRC [peptide VII, alanine scan of mEGF(33-42): Ala for Val] | dramatic decrease in receptor affinity | – | parallel decrease in their ability to block adhesion to laminin | –
5 | CVAGYSGDRC [peptide VI, alanine scan of mEGF(33-42): Ala for Ile] | dramatic decrease in receptor affinity | – | parallel decrease in their ability to block adhesion to laminin | –
6 | CVIGYAGDRC [X, alanine scan of mEGF(33-42): Ala for Ser (P6)] | dramatic decrease in receptor affinity | – | parallel decrease in their ability to block adhesion to laminin | –
7 | CVIGYSGDRA [peptide IX, alanine scan of mEGF(33-42): alanine for cysteine at P10] | retains both receptor binding and adhesion displacing activities | has the agonism of Lam.β-1(925-933) | retains both receptor binding and adhesion displacing activities | –
8 | laminin | equipotent | – | – | –
9 | mEGF(33-42) analogue, isoleucine (P6) for serine; acetyl-Cys(ACM)-Val-Ile-Gly-Tyr-Ile-Gly-Asp-Arg-Cys(ACM)-NH2 (Ac-C(Acm)VIGYIGDRC(Acm)-NH2; SMILES CC[C@H](C)[C@H](NC(=O)[C@H](Cc1ccc(O)cc1)NC(=O)CNC(=O)[C@@H](NC(=O)[C@@H](NC(=O)[C@H](CSCNC(C)=O)NC(C)=O)C(C)C)[C@@H](C)CC)C(=O)NCC(=O)N[C@@H](CC(=O)O)C(=O)N[C@@H](CCCNC(=N)N)C(=O)N[C@@H](CSCNC(C)=O)C(N)=O) [peptide I] | reduced receptor affinity | weak antagonist activities | both reduced receptor affinity and potency in displacement of cell adhesion to laminin | –
10 | peptide II: mEGF(33-42) analogue, aspartate (P8) replaced with serine (CVIGYSGSRC) | – | – | – | biological function (receptor binding, adhesion, motility) (67-LR): complete loss of biological function
11 | peptide III: mEGF(33-42) analogue with both isoleucine (P6) for serine and serine (P8) for aspartate (CVIGYIGSRC) | – | – | – | biological function (receptor binding, adhesion, motility) (67-LR): complete loss of biological function
12 | peptide V: mEGF(33-42) analogue, tyrosine (P5) substituted with Tic-OH (CVIG[Tic‑OH]SGDRC; cysteine pairing not given here) | both receptor binding and adhesion responses were retained | agonist | both receptor binding and adhesion responses were retained | –
